Holding throughout (type): cell-based
For assay [1], the target named is T1, sweet receptor T1R2/T1R3 (Homo sapiens, UniProt Q7RTX0+Q8TE23).
T1 construct: Formation of green fluorescent vesicles in TRANSFLUOR U2-OS cells transfected with BacMam encoding Gα15; endogenous in cells; host or cells: TRANSFLUOR U2-OS cells stably expressing β-arrestin-GFP, transfected with BacMam Gα15
T1 sequence (Q8TE23 20-839): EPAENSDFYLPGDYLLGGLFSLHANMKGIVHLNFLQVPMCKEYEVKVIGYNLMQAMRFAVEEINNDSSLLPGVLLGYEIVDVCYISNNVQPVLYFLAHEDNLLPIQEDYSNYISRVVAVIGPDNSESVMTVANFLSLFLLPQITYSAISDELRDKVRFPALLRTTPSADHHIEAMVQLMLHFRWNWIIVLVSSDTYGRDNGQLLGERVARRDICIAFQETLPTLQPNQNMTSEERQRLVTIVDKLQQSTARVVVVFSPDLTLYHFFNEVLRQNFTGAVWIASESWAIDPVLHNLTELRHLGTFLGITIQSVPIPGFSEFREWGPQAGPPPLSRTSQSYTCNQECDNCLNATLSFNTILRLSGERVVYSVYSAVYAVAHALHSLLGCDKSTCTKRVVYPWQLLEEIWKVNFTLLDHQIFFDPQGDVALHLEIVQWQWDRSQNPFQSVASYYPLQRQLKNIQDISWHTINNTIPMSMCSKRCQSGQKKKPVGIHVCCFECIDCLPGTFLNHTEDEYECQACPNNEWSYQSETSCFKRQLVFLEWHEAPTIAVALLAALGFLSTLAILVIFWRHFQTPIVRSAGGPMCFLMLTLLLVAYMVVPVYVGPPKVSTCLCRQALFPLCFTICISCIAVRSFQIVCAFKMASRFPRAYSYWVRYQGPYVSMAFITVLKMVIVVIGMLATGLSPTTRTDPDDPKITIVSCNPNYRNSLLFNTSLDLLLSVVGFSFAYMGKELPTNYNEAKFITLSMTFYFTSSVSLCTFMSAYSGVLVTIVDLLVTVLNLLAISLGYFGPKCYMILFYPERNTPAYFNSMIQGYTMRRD
T1 sequence (Q7RTX0 21-852): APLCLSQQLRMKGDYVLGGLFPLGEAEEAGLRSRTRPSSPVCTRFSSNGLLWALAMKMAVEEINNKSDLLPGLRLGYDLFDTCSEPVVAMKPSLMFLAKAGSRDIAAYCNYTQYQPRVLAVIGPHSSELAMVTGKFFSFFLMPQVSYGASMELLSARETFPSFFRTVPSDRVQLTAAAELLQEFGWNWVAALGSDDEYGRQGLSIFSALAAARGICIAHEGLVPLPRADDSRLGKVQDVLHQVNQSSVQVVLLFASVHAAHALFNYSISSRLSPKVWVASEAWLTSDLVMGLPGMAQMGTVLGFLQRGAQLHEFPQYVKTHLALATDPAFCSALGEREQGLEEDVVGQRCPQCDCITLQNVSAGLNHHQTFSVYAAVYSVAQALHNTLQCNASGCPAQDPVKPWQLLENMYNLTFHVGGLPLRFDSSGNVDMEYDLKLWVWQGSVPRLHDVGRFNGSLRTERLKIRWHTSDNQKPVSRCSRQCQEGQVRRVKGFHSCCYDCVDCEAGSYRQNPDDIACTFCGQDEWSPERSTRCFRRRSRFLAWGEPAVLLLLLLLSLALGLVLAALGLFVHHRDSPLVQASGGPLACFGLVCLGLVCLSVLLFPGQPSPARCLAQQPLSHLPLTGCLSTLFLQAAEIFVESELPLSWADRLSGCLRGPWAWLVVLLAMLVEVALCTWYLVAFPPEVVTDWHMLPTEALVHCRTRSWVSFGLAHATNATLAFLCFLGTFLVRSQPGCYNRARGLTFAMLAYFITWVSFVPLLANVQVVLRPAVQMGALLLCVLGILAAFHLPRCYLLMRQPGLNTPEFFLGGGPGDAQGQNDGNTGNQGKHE
Nature of the assay: Calcium assay (FLIPR) in U2-OS cells transfected with Gα15. The note with it: U2-OS transfected with Gα15 BacMam; 100 mM. On the procedure: (§1) U2-OS cells were transiently transfected with 0.5-12 μl of BacMam encoding G protein, gustducin (Gα15, Gα16gust44) per 40,000 cells during 24 h or 48 h. Transfected cells were seeded at density of 5,000 cells/well on PDL-coated 384-well plates.
Calcium traces in Fluo-4AM loaded cells were recorded over time in FLIPR^Tetra (MDC) with λEX=470-495 nm and λEM=515-575 nm. The peak increase in fluorescence over baseline was determined and is expressed as relative fluorescence units (RFU).

Assay [2] has as its target T1, sweet receptor T1R2/T1R3. In words: pERK1/2 assay in parental U2-OS cells (high content imaging). The note with it: 100 mM, 5, 15 and 30 minutes. As to the method:
U2-OS cells were grown in McCoy media supplemented with 10% fetal bovine serum. Cells were seeded at density of 5,000 cells/well on PDL-coated 384-well plates.
For pERK1/2 studies, growth media was replaced with media without serum for 2 h. […] (20 mM). Control groups of cells also received DMSO (0.1%) in medium. […] Images were acquired on an ImageXpressMicro (MDC) and analyzed with MWCS Module.
The phosphorylation of ERK1/2 is a common downstream event following GPCR activation via the PLCβ2-IP3 pathway. Growth media was replaced with Dulbecco's phosphate buffered saline (DPBS) without serum for 2 h. […] For each data point, average of Mean Cell Integrated intensity and standard deviation are calculated from quadruplicate data points.

Assay [3] deals with T1, sweet receptor T1R2/T1R3. In words: pERK1/2 assay in U2-OS cells transfected with Gα15. The note with it: for pERK1/2 activation: U2-OS cells overexpressing Gα15 (6 μl/40,000 cells), 100 mM. On the procedure: as §1
For pERK1/2 studies, growth media was replaced with media without serum for 2 h. U2-OS cells were treated with 100 mM Sweet compounds with or without of U73122 (10 μM) and with or without […] (20 mM). Control groups of cells also received DMSO (0.1%) in medium. The fixed cells were stained with rabbit anti-phospho-p44/p42 MAPK (pERK1/2) antibodies from Cell Signaling Technologies, then with secondary Alexa 488-conjugated antibodies (Life Technology) and HOECHST 33342. Images were acquired on an ImageXpressMicro (MDC) and analyzed with MWCS Module.
The phosphorylation of ERK1/2 is a common downstream event following GPCR activation via the PLCβ2-IP3 pathway. Growth media was replaced with Dulbecco's phosphate buffered saline (DPBS) without serum for 2 h. […] For each data point, average of Mean Cell Integrated intensity and standard deviation are calculated from quadruplicate data points. […]

Assay [4] concerns the target T2, sweet taste receptor T1R2/T1R3/Gα15 (Homo sapiens, UniProt Q7RTX0+Q8TE23).
T2 construct: expressed in transfected cells; host or cells: JUMP-IN T-REX U2-OS cells
T2 sequence (Q8TE23 20-839): T1 sequence (Q8TE23 20-839)
T2 sequence (Q7RTX0 21-852): T1 sequence (Q7RTX0 21-852)
Nature of the assay: Calcium assay (FLIPR) in JUMP-IN T-REX U2-OS cells with doxycycline-inducible T1R2/T1R3/Gα15. As to conditions: U73122. As to the method: JUMP-IN T-REX U2-OS cells were transfected with the PJTI-R4EXP-CMV-TO-T1R3/T1R2/Gα15-pA and JTI-R4 Integrase vectors (Life Technology).
The peak increase in fluorescence over baseline was determined and is expressed as relative fluorescence units (RFU).

In the case of `OC[C@H]1O[C@H](O[C@]2(CCl)O[C@H](CCl)[C@@H](O)[C@@H]2O)[C@H](O)[C@@H](O)[C@H]1Cl` [sucralose], the “Ca2+ response” value in assay [1] is recorded as “induced Ca^(2+) response”.
On to `O=C[C@H](O)[C@@H](O)[C@H](O)[C@H](O)CO` [D-glucose], for which the pERK1/2 activation result in assay [2] was “induced pERK1/2 activation in a time-dependent manner”; in assay [2] (listed as glucose), “activates pERK1/2”; in assay [3], “induced pERK1/2 activation in a time-dependent manner”; in assay [3] (listed as glucose), “increased pERK1/2 activity”. The “Ca2+ response” value in assay [1] is recorded as “significantly increased Ca^(2+) response”.
For `O=C(CO)[C@@H](O)[C@H](O)[C@H](O)CO` [D-fructose], the “Ca2+ response” value in assay [1] is given as “significantly increased Ca^(2+) response”.
As for `COc1ccc2c(c1)CC[C@@H]1[C@@H]2CC[C@]2(C)[C@@H](NCCCCCCN3C(=O)C=CC3=O)CC[C@@H]12` [U73122], the “Blockade of pERK1/2 activation” value in assay [3] (U73122 10 μM, U2-OS cells transfected with Gα15) is “blocked”. In assay [4], the “Effect on Ca2+ release upon treatment with D-glucose and D-fructose” value was “abolished”; the “Effect on Ca2+ response after stimulation with sucrose and sucralose” value is “had no effect”.
Regarding `OC[C@H]1O[C@H](O[C@H]2[C@H](O)[C@@H](O)C(O)O[C@@H]2CO)[C@H](O)[C@@H](O)[C@@H]1O` (mixture of isomers) [maltose], in assay [3], the pERK1/2 activation entry was “increased pERK1/2 activity”.
As for `OC[C@H]1O[C@@](CO)(O[C@H]2O[C@H](CO)[C@@H](O)[C@H](O)[C@H]2O)[C@@H](O)[C@@H]1O` [sucrose], in assay [1], the “Ca2+ response” value is listed as “significantly increased Ca^(2+) response”.

Values taken from patent US10107794B2, “Methods of using U2-OS cells to identify potential sweet taste modulators” (PepsiCo, Inc., priority 2013, dated 2018).
